Test results published in ChEMBL document CHEMBL1201862, “PubChem BioAssay data set” (2004).
Active and inactive are the calls of the source.

What was measured:
[1] = biological target: T1, Apoptotic protease-activating factor 1 (Homo sapiens, UniProt O14727); type: functional
T1 sequence (O14727 whole entry): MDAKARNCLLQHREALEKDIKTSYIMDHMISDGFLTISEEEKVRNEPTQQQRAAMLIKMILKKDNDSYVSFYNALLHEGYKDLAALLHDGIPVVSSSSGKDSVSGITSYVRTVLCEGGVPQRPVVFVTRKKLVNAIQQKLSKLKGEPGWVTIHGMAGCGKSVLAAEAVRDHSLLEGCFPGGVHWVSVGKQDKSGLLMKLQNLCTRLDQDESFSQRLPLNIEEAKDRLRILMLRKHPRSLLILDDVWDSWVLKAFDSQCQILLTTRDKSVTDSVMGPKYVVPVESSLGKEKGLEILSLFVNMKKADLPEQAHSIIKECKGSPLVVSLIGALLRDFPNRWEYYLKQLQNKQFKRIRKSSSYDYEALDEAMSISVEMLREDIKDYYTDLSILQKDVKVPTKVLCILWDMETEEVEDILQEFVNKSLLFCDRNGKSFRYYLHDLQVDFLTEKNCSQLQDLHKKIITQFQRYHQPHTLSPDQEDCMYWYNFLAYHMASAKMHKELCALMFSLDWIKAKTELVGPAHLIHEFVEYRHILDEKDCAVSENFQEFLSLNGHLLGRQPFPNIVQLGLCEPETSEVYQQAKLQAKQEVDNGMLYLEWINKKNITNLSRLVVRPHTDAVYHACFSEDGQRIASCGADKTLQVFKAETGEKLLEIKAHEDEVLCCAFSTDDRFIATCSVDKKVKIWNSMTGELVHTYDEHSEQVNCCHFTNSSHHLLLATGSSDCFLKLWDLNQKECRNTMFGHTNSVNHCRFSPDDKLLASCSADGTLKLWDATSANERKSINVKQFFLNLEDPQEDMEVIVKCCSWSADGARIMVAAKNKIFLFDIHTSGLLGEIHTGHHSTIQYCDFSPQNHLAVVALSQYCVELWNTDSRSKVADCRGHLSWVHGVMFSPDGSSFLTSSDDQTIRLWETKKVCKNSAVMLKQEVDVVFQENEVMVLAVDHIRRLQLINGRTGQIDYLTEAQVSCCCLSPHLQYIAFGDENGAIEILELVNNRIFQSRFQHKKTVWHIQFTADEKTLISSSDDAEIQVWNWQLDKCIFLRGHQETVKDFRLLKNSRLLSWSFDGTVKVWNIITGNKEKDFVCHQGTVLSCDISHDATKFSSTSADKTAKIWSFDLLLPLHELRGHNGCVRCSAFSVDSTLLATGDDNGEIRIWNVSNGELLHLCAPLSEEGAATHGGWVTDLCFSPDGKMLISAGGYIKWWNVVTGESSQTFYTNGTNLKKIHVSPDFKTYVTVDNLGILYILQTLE

P388 = assay: cells; type: functional; details: Mus musculus
P388/ADR = assay: cells; type: functional; details: Mus musculus
SN12K1 = assay: cells; type: functional; details: Homo sapiens
Melanocortin receptor 4 = Melanocortin receptor 4 (Homo sapiens, UniProt P32245); type: functional, cell-based;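 note: Cell-based assay with luminescence read-out, confirmatory dose-response testing for agonist activity of biased ligands at MC4R; human U2OS cells with tagged receptor and beta-arrestin; potency of agonists that increase receptor coupling to beta-arrestin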
Melanocortin receptor 4, sequence (P32245 whole entry): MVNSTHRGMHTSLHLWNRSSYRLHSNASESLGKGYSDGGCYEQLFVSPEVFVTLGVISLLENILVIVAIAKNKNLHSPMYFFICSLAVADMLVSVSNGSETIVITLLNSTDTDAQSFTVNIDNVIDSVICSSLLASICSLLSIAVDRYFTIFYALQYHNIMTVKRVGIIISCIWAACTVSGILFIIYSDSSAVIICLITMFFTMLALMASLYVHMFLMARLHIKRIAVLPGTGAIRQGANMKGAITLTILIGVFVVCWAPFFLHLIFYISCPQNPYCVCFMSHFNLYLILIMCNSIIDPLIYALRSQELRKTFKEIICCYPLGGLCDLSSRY

Leucine aminopeptidase = biological target: T2, Leucine aminopeptidase (Plasmodium falciparum 3D7, UniProt Q8IL11); assay: P. falciparum M17LAP inhibitors, primary screen, biochemical, fluorogenic H-Leu-NHMec substrate, 1536-well (AID 1619); type: functional
T2 sequence (Q8IL11 whole entry): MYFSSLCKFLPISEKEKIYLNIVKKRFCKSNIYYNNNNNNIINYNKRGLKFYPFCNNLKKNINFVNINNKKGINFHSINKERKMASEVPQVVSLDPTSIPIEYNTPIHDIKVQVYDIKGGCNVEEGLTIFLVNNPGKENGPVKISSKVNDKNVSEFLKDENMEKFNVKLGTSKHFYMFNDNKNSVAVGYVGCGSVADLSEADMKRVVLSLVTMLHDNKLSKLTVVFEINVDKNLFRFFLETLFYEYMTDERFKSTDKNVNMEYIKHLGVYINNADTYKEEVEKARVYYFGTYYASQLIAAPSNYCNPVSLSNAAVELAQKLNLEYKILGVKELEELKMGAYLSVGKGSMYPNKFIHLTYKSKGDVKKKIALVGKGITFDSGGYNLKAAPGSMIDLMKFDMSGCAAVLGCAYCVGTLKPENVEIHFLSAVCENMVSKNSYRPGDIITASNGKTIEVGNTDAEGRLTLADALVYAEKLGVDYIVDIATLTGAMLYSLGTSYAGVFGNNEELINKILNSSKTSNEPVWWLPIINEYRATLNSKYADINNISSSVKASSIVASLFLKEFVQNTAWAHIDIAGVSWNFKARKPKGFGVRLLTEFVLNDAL

[2] = biological target: T3, Low molecular weight phosphotyrosine protein phosphatase (Homo sapiens, UniProt P24666); type: functional; details: read-out: IC50_Mean;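 note: Dose-response confirmation assay measuring inhibition of LMPTP enzyme activity by fluorescence intensity read-out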
T3 sequence (P24666 whole entry): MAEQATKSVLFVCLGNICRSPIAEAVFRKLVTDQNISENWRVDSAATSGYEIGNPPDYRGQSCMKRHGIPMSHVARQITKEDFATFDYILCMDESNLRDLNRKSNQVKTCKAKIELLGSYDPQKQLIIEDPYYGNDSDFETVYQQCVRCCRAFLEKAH

[3] = non-specific 3'UTR reporter inhibition in Clone20-Shn3RL – cell-based, Renilla luciferase, cherry-picked, counter-screen for Shn3 inhibitor project, dose response (AID 624133); type: functional
[4] = loss of viability in HepG2 cells – cell-based, CellTiter-Glo, cherry-picked, cytotoxicity control for Shn3 inhibitor project, dose response (AID 624134); type: functional
[5] = reduction of Shn3 3'UTR-driven luciferase in osteoblasts – cell-based, Clone20 osteoblasts, firefly luciferase, cherry-picked, dose response (AID 624132); type: functional;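 note: firefly luciferase luminescence from reporter carrying the Shn3 3'UTR in osteoblasts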
[6] = biological target: Photoreceptor-specific nuclear receptor (Homo sapiens, UniProt Q9Y5X4); type: functional, cell-based;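 note: CHO-S cells with Gal4-NCOR and VP16-NR2E3 two-hybrid luciferase reporter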
Photoreceptor-specific nuclear receptor, sequence (Q9Y5X4 whole entry, the tested form may be a part): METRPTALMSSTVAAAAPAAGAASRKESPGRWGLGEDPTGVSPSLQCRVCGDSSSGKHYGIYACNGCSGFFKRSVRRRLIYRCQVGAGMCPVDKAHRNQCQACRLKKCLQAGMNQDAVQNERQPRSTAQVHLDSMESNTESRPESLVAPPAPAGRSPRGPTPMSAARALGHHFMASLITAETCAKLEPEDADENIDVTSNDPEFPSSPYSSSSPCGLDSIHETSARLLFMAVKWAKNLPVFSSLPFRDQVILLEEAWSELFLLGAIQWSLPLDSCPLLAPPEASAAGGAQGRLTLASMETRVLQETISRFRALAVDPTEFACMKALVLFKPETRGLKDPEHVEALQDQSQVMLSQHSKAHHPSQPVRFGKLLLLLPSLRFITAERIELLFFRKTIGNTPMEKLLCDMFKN

[7] = biological target: T4, Ubiquitin-conjugating enzyme E2 N (Homo sapiens, UniProt P61088); type: functional
T4 sequence (P61088 whole entry): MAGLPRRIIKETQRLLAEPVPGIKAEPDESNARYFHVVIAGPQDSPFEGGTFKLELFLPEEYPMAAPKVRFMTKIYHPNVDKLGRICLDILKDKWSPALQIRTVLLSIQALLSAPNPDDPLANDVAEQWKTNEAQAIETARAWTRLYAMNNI

[8] = biological target: T4, Ubiquitin-conjugating enzyme E2 N; type: functional; remark: listed apart in the source
Bcl-2-related protein A1 = biological target: T5, Bcl-2-related protein A1 (Mus musculus, UniProt Q07440); type: functional;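 note: confirmatory dose–response counterscreen on Bfl-1, used to check hits from a UBC13 polyubiquitin inhibitor campaign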
T5 sequence (Q07440 whole entry): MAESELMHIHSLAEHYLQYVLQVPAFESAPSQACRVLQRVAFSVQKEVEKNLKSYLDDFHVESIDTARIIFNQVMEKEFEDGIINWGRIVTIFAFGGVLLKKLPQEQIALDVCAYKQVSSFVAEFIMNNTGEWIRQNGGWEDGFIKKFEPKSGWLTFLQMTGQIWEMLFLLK

[9] = Fluorescence-based cell-based high throughput dose response assay for inhibitors of the interaction of nucleotide-binding oligomerization domain containing 2 (NOD2) and the receptor-interacting serine-threonine kinase 2 (RIPK2).; type: functional; details: Homo sapiens
cells [10] = type: functional, cell-based
cells [11] = type: functional, cell-based; remark: listed apart in the source
[12] = HGIII-sPLA2 enzyme inhibition potency – biochemical, QFRET, IC50, dose response (AID 743457);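 note: green fluorescence rise as the enzyme cleaves BODIPY PC-A2 in liposomes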
Protein RecA = biological target: T6, Protein RecA (Mycobacterium tuberculosis, UniProt P9WHJ3); assay: Fluorescence Cell-Free Homogeneous Dose Retest to Identify Inhibitors of RecA-Intein Splicing Activity. [Related pubchem assays (depositor defined):AID2097, AID2223, AID489010, AID492950]; type: functional
T6 sequence (P9WHJ3 whole entry): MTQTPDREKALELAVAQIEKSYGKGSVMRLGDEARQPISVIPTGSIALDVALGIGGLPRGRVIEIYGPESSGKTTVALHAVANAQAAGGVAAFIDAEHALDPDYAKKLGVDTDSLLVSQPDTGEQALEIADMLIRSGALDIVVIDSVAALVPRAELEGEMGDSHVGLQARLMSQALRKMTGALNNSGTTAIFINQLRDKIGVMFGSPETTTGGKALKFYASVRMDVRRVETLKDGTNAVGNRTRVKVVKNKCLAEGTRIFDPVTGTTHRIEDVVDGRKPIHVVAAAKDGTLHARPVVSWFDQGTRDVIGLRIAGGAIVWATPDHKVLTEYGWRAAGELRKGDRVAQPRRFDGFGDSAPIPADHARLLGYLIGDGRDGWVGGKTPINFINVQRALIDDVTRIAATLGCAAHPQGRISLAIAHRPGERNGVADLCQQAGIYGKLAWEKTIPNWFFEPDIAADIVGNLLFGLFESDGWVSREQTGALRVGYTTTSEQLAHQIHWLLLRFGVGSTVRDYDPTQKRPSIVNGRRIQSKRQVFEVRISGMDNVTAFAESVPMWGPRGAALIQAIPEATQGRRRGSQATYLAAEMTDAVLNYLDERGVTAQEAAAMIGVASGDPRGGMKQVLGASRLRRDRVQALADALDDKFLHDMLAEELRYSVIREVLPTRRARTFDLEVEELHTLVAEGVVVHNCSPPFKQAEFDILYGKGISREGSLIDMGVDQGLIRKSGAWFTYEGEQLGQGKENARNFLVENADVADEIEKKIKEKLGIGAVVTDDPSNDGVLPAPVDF

[13] = biological target: T7, Replicative DNA helicase DnaB (Mycobacterium tuberculosis, UniProt P9WMR3); assay: DnaB intein splicing inhibitors, dose response, biochemical, cell-free fluorescence (AID 449749); type: functional
T7 sequence (P9WMR3 whole entry): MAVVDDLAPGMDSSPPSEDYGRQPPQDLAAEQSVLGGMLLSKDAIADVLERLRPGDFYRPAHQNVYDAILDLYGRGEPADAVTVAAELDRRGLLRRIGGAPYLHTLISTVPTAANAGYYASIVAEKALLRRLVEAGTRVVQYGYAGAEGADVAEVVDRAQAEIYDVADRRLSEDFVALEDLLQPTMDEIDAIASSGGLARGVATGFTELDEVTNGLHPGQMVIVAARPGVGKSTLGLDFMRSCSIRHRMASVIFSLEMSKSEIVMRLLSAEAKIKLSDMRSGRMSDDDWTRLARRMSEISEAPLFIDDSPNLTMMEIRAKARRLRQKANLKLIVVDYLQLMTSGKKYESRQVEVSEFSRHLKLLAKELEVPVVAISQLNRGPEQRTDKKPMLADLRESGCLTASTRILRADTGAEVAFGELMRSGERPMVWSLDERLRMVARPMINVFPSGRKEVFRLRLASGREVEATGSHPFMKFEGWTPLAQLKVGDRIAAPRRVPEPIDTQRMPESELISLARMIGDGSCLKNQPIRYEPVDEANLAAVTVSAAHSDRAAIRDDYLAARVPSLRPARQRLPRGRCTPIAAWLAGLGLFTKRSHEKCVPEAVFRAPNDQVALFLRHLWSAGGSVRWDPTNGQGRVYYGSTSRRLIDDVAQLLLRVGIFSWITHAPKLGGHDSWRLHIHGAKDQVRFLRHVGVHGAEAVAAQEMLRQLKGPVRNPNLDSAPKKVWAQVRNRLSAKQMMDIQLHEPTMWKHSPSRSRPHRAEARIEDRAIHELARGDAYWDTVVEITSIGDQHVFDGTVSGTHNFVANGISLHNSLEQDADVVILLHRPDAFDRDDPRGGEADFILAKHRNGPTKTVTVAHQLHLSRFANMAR

Compound: CC(C)CC[n+]1ccn(C2=C([N-]S(=O)(=O)c3ccccc3)C(=O)c3ccccc3C2=O)c1
- IC50 [1]: 12.9 µM (active)

Compound: CN1C(=O)c2ccccc2NC(=O)c2cnn(C)c21
- GI50 (P388): > 100 µM (inactive)
- GI50 (P388/ADR): > 100 µM (inactive)
- GI50 (SN12K1): > 100 µM (inactive)

Compound: Nc1ccn(C2OC(COP(=O)(O)Oc3ccccc3)C(O)C2O)c(=O)n1 (stereo not given)
- GI50 (P388): 0.264 µM (active)
- GI50 (P388/ADR): 0.675 µM (active)
- GI50 (SN12K1): 5.56 µM (inactive)

Compound: C/C(=C\c1ccco1)C1C(C#N)=C(N)Oc2[nH]nc(-c3ccc(C)cc3)c21 (stereo not given)
- EC50 (Melanocortin receptor 4): > 89.2 µM (inactive)
- IC50 (Leucine aminopeptidase): 132 µM (active)

Compound: COc1ccc2nc3ccccc3c(NCCN(C)CCCl)c2c1
- GI50 (P388): 0.256 µM (active)
- GI50 (P388/ADR): 0.424 µM (active)
- GI50 (SN12K1): 0.684 µM (active)

Compound: Cc1nnc(C)c2c(C)n(-c3ccc4ncccc4c3)c(C)c12
- IC50 [2]: 45.2 µM (inactive)

Compound: CN(CC(=O)Nc1ccccc1Cl)C(=O)c1cccc(S(=O)(=O)N2CCN(c3ccc(F)cc3)CC2)c1
- AC50 [3]: 3.53 µM (active)
- AC50 [4]: > 70 µM (inactive)
- AC50 [5]: 3.62 µM (active)
- IC50 [6]: 8.34 µM (active)

Compound: CN(C)CCC(=O)C(Cc1ccccc1)c1ccccc1 (stereo not given)
- IC50 [7]: > 20 µM (inactive)
- IC50 [8]: 13.3 µM (active)
- IC50 (Bcl-2-related protein A1): > 20 µM (inactive)
- IC50 [9]: 4.6 µM (active)

Compound: CC1OC(NCCc2ccccc2)C(O)C(O)C1O (stereo not given)
- IC50 (cells [10]): > 29.9 µM (inactive)
- EC50 (cells [11]): > 29.9 µM (inactive)

Compound: Cc1csc(NC(=S)NC(=O)c2ccccc2)n1
- IC50 [12]: > 122 µM (inactive)

Compound: CN(Cc1ccc(Cl)c(Cl)c1)C(=O)c1cccc(S(=O)(=O)N2CCN(Cc3ccccc3)CC2)c1
- IC50 [7]: 12.5 µM (active)
- AC50 [3]: 7.2 µM (active)
- IC50 [8]: 18.4 µM (active)
- AC50 [4]: > 70 µM (inactive)
- IC50 (Bcl-2-related protein A1): > 20 µM (inactive)
- AC50 [5]: 3.47 µM (active)
- IC50 [1]: 42.7 µM (active)

Compound: COC1=CC(=O)c2c(c(O)c3oc4cc(OC)cc(C)c4c(=O)c3c2O)C1=O [BIKAVERIN]
- GI50 (P388): 0.695 µM (active)
- GI50 (P388/ADR): 1.04 µM (active)
- GI50 (SN12K1): 0.422 µM (active)

Compound: CC(=O)Nc1cc(-c2cccnc2)cn2c(-c3cccc(C(F)(F)F)c3)cnc12
- EC50 (Melanocortin receptor 4): 84.1 µM (inactive)

Compound: CC(=O)N(C1=C(N2CCOCC2)C(=O)c2ccccc2C1=O)c1ccc(C(=O)O)cc1
- EC50 (Protein RecA): 1.01 µM (active)
- AC50 [13]: 16.7 µM (active)
- IC50 [1]: 26.2 µM (active)

Compound: CCn1cc(C(=O)O)c(=O)c2cc(F)c(N3CCN(C(=S)NC(=O)c4ccccc4Cl)CC3)cc21
- IC50 [2]: 5.84 µM (active)

Compound: CC(=O)c1c(C)[nH]c(C(=O)OCC(=O)c2ccc(Br)cc2)c1C
- IC50 [6]: 3.35 µM (active)
